In publication PMC11640419, “New Synthetic Analogs of Natural 5Z,9Z-Dienoic Acids—Hybrid Molecules Based on Oleanolic Acid: Synthesis and Study of Antitumor Activity” (Cancers, 2024):

Experiments:
[1] = Cytotoxicity assay (7-AAD, flow cytometry); format: cell-based, human; conditions: human, Jurkat cells; Jurkat, 24 h incubation
Experimental: The human cell lines Jurkat, K562, U937, and HEK293 were obtained from the European Collection of Authenticated Cell Cultures (ECACC) and subsequently cultured in accordance with established standard protocols and sterile techniques. […] Subsequently, the cells were seeded into 24-well plates at a density of 5 × 10^4 cells per well and incubated for 12 h (Jurkat, K562, U937) and 24 h (HEK293).
The viability of the cells was evaluated through the utilization of the 7-AAD (7-aminoactinomycin D) dye (eBioscience™, San Diego, CA, USA). Following a 24 h incubation period with the test substances, the cells were washed with phosphate-salt buffer (PBS) and centrifuged at 400× g for five minutes. […] Subsequently, all cell samples were subjected to analysis on a NovoCyte Penteon flow cytometer (Agilent, Santa Clara, CA, USA).

[2] = Cytotoxicity assay (7-AAD, flow cytometry); format: cell-based, human; conditions: human
Experimental: The human cell lines Jurkat, K562, U937, and HEK293 were obtained from the European Collection of Authenticated Cell Cultures (ECACC) and subsequently cultured in accordance with established standard protocols and sterile techniques. The cells were maintained in RPMI 1640 (for Jurkat, K562, and U937) or DMEM (for HEK293) medium, both of which were supplemented with […], 10% FBS (Sigma, Kanagawa, Japan), and 100 units/mL penicillin-streptomycin (Sigma). Subsequently, the cells were seeded into 24-well plates at a density of 5 × 10^4 cells per well and incubated for 12 h (Jurkat, K562, U937) and 24 h (HEK293).
The viability of the cells was evaluated through the utilization of the 7-AAD (7-aminoactinomycin D) dye (eBioscience™, San Diego, CA, USA). Following a 24 h incubation period with the test substances, the cells were washed with phosphate-salt buffer (PBS) and centrifuged at 400× g for five minutes. The precipitate was resuspended in 200 μL of flow cytometry buffer (PBS without calcium and magnesium, 2.5% FBS) and incubated with a 1 mM 7-AAD dye solution for 15 min in the dark at room temperature. Subsequently, all cell samples were subjected to analysis on a NovoCyte Penteon flow cytometer (Agilent, Santa Clara, CA, USA).

[3] = HEK293 cells, HEK293, 24 h incubation
[4] = K562 cells, K562, 24 h incubation
[5] = U937 cells, U937, 24 h incubation

Row | Compound | CC50 at 24 h [1] | CC50 at 24 h [2, 3] | CC50 at 24 h [2, 4] | CC50 at 24 h [2, 5]
1 | Cc1c(NC(=O)[C@]23CCC(C)(C)CC2C2=CCC4[C@@]5(C)CC[C@H](OC(=O)CCC/C=C\CC/C=C\CCCC(=O)O)C(C)(C)C5CC[C@@]4(C)[C@]2(C)CC3)c(=O)n(-c2ccccc2)n1C (stereo partly shown) [compound 9b] | 6.11 ± 0.56 µM | 21.4 ± 2.33 µM | 5.76 ± 0.69 µM | 4.86 ± 0.42 µM
2 | CC(=O)O[C@H]1CC[C@@]2(C)C(CC[C@]3(C)C2CC=C2C4CC(C)(C)CC[C@]4(C(=O)NC(C)C45CC6CC(CC(C6)C4)C5)CC[C@]23C)C1(C)C (stereo partly shown) [compound 7d] | 120 ± 11.8 µM | 342 ± 33.8 µM | 99.9 ± 9.38 µM | 97.1 ± 8.96 µM
3 | CC(=O)O[C@H]1CC[C@@]2(C)C(CC[C@]3(C)C2CC=C2C4CC(C)(C)CC[C@]4(C(=O)Nc4c(C)n(C)n(-c5ccccc5)c4=O)CC[C@]23C)C1(C)C (stereo partly shown) [compound 7b] | 86.5 ± 8.46 µM | 218 ± 20.7 µM | 81.3 ± 7.98 µM | 72.2 ± 7.34 µM
4 | CC(=O)O[C@H]1CC[C@@]2(C)C(CC[C@]3(C)C2CC=C2C4CC(C)(C)CC[C@]4(C(=O)Nc4cc(C)on4)CC[C@]23C)C1(C)C (stereo partly shown) [compound 7h] | 146 ± 14 µM | 489 ± 44.8 µM | 139 ± 12.9 µM | 129 ± 11.7 µM
5 | CC(=O)O[C@H]1CC[C@@]2(C)C(CC[C@]3(C)C2CC=C2C4CC(C)(C)CC[C@]4(C(=O)Nc4cccc5cccnc45)CC[C@]23C)C1(C)C (stereo partly shown) [compound 7i] | 153 ± 13.9 µM | 456 ± 42.7 µM | 133 ± 12.9 µM | 122 ± 12.8 µM
6 | CC(=O)O[C@H]1CC[C@@]2(C)C(CC[C@]3(C)C2CC=C2C4CC(C)(C)CC[C@]4(C(=O)NCc4cccs4)CC[C@]23C)C1(C)C (stereo partly shown) [compound 7e] | 131 ± 12.5 µM | 438 ± 42.6 µM | 125 ± 11.9 µM | 108 ± 11 µM
7 | CC1(C)CC[C@]2(C(=O)Nc3ccncc3)CC[C@]3(C)C(=CCC4[C@@]5(C)CC[C@H](OC(=O)CCC/C=C\CC/C=C\CCCC(=O)O)C(C)(C)C5CC[C@]43C)C2C1 (stereo partly shown) [compound 9g] | 80.4 ± 7.86 µM | 223 ± 21.8 µM | 72.1 ± 6.39 µM | 61.2 ± 6.48 µM
8 | CC(NC(=O)[C@]12CCC(C)(C)CC1C1=CCC3[C@@]4(C)CC[C@H](O)C(C)(C)C4CC[C@@]3(C)[C@]1(C)CC2)C12CC3CC(CC(C3)C1)C2 (stereo partly shown) [compound 8d] | 110 ± 11.6 µM | 398 ± 37.6 µM | 93.8 ± 8.91 µM | 58.1 ± 6.26 µM
9 | CC1(C)CC[C@]2(C(=O)NCc3cccs3)CC[C@]3(C)C(=CCC4[C@@]5(C)CC[C@H](O)C(C)(C)C5CC[C@]43C)C2C1 (stereo partly shown) [compound 8e] | 165 ± 14.2 µM | 593 ± 53.9 µM | 149 ± 12.6 µM | 122 ± 12 µM
10 | CC1(C)CC[C@]2(C(=O)Nc3nccs3)CC[C@]3(C)C(=CCC4[C@@]5(C)CC[C@H](O)C(C)(C)C5CC[C@]43C)C2C1 (stereo partly shown) [compound 8f] | 189 ± 17.4 µM | 611 ± 57.7 µM | 168 ± 17.1 µM | 157 ± 15 µM
11 | CC1(C)CC[C@]2(C(=O)Nc3cccc4cccnc34)CC[C@]3(C)C(=CCC4[C@@]5(C)CC[C@H](O)C(C)(C)C5CC[C@]43C)C2C1 (stereo partly shown) [compound 8i] | 165 ± 14.3 µM | 515 ± 40.3 µM | 155 ± 12.9 µM | 142 ± 12.5 µM
12 | Cn1nccc1NC(=O)[C@]12CCC(C)(C)CC1C1=CCC3[C@@]4(C)CC[C@H](O)C(C)(C)C4CC[C@@]3(C)[C@]1(C)CC2 (stereo partly shown) [compound 8a] | 23.8 ± 2.84 µM | 110 ± 10.3 µM | 20.4 ± 2.11 µM | 19.6 ± 1.96 µM
13 | CC(=O)O[C@H]1CC[C@@]2(C)C(CC[C@]3(C)C2CC=C2C4CC(C)(C)CC[C@]4(C(=O)NC45CC6CC(CC(C6)C4)C5)CC[C@]23C)C1(C)C (stereo partly shown) [compound 7c] | 121 ± 11.8 µM | 366 ± 34.7 µM | 104 ± 10.6 µM | 98.9 ± 9.54 µM
